Experimental findings from ChEMBL document CHEMBL1255464, “Ethambutol optimal clinical dose and susceptibility breakpoint identification by use of a novel pharmacokinetic-pharmacodynamic model of disseminated intracellular Mycobacterium avium” (Antimicrob Agents Chemother, 2010) are described below.

≈ marks a conversion by molar mass, not a printed value.

Data set [1] relates to Mycobacterium avium. The data set can be described thus: Antimycobacterial activity against Mycobacterium avium ATCC 700898 infected in human THP1 cells. In kind it is functional, THP-1.
Data set [2] concerns Mycobacterium avium. In words: Antimycobacterial activity against Mycobacterium avium ATCC 700898 infected in human THP1 cells assessed as extracellular bacterial killing. In kind it is functional. Particulars: ATCC 700898, THP-1.
The subject of data set [3] is Mycobacterium avium. The data set can be described thus: Antimycobacterial activity against Mycobacterium avium ATCC 700898 infected in human THP1 cells assessed as extracellular bacterial killing after 7 days. Particulars: ATCC 700898, THP-1, 168 h. In kind it is functional, organism-based.
Data set [4] concerns Mycobacterium avium. The data set can be described thus: Antimycobacterial activity against Mycobacterium avium ATCC 700898 infected in human THP1 cells assessed as intracellular bacterial killing. In kind it is functional. Particulars: ATCC 700898, THP-1.
In data set [5] the test system is Mycobacterium avium. The data set can be described thus: Antimycobacterial activity against Mycobacterium avium ATCC 700898 infected in human THP1 cells assessed as intracellular bacterial killing after 7 days. In kind it is functional, organism-based. Particulars: ATCC 700898, THP-1, 168 h.
The test system of data set [6] is THP-1. The data set can be described thus: Cytotoxicity against human THP1 cells. In kind it is cell-based.

Turning to `CC[C@@H](CO)NCCN[C@@H](CC)CO` [ETHAMBUTOL], in data set [1], the MIC came to 8 µg/mL (≈ 39.2 µM). Besides, the Emax turned out to be 5.54 log10 CFU/ml in data set [2] and 0.67 log10 CFU/ml in data set [4]. The values for the half-maximal effective concentration (EC50) in data set [3] and in data set [5] were 5.38 µg/mL (≈ 26.3 µM) and 7.93 µg/mL (≈ 38.8 µM), respectively. Moreover, the Activity result in data set [6] is on record as “Non-toxic”.
